Source: US20160184248A1, “COMPOSITIONS AND METHODS OF USE OF -HYDROXY-METHYLBUTYRATE (HMB) RESULTING IN AN ACUTE ENDOCRINE RESPONSE” (University of Central Florida Research Foundation Inc., priority 2014, published 2016)

Assays:
insulin [1] = experiment: Serum insulin response to the exercise protocol after HMB ingestion; format: in vivo, human; settings: acute ingestion and training session
From the text: (§1) Twenty resistance trained men (22.3±2.4 y, 1.8±0.1 m, […]) volunteered to participate in this study. Participants were randomly separated into one of two groups: ingestion of HMB free-acid (HMB-FA; n=10) or ingestion of placebo (PL; n=10). Following an explanation of all procedures, risks, and benefits, each participant gave his informed consent prior to participation in this study. The Institutional Review Board for the protection of human subjects of the University of Central Florida approved the research protocol. For inclusion in this study, participants were required to have a minimum of one year of resistance training experience, particularly in the squat exercise. Participants were not permitted to use any additional nutritional supplements or medications while enrolled in this study. Screening for nutritional and hormonal supplements was accomplished via a health history questionnaire completed during participant recruitment.
(§2) The investigation utilized a placebo-controlled, double-blind, randomized design. Participants reported to the laboratory on two occasions. […] Total training volume, calculated as repetitions×load, was recorded for further analysis. […]
(§3) Prior to analysis, all data were assessed to ensure normal distribution, homogeneity of variance, and sphericity. […]

[2] = healthy young or old adults; cited from earlier work
muscle proteolysis = settings: isolated rat muscle, in vitro; cited from earlier work
insulin [3] = settings: HMB treated rats, prolonged supplementation; cited from earlier work
[4] = after HMB is fed; cited from earlier work
testosterone = experiment: Plasma testosterone after HMB-FA ingestion and resistance exercise; format: in vivo, human; settings: acute ingestion and training session
From the text: as §1, §2, §3

[5] = system: insulin-like growth factor (IGF-1); experiment: Plasma IGF-1 response to resistance exercise after HMB-FA ingestion (commercial kit); format: in vivo, human
From the text: as §1
(§4) The investigation utilized a placebo-controlled, double-blind, randomized design. Participants reported to the laboratory on two occasions. On the first visit (T1), participants were tested for their one-repetition maximum (1-RM) on the barbell back squat, dead lift, and barbell split squat exercises. Participants were instructed to refrain from any form of exercise for a minimum of 72 hours prior to the resistance training bout (T2). On T2, participants completed an intense lower-body resistance exercise session, which consisted of four sets of the barbell back squat, dead lift, and barbell split squat exercises. The barbell back squat exercise was performed with 80% of the participant's 1-RM and the dead lift and barbell split squat exercises were performed with 70% of the participant's 1-RM. Rest intervals were set at 90 s between each set and between exercises. Participants were encouraged to perform as many repetitions as possible up to 10 repetitions for each set. Total training volume, calculated as repetitions×load, was recorded for further analysis.
The HMB-FA supplement consisted of one gram of β-hydroxy-β-methylbutyrate in the free-acid form (Beta-TOR®, Metabolic Technologies Inc., Ames, Iowa), reverse osmosis water, de-bittering agent, flavor, stevia extract, and potassium carbonate. Each serving of placebo contained one gram of polydextrose and was identical to the HMB-FA supplement in appearance and taste. The HMB-FA and PL treatments were produced and supplied by Metabolic Technologies Inc. (Ames, Iowa). One serving of HMB-FA or PL was consumed 30 minutes prior to the exercise session. All HMB-FA and PL ingestion took place in the Human Performance Lab and was witnessed by one of the investigators. […]
as §3

[6] = in vivo; cited from earlier work
muscle damage = settings: initiated 30 min prior to an acute bout of exercise; cited from earlier work
growth hormone = experiment: Growth hormone response to resistance exercise after HMB-FA ingestion (commercial kit); format: in vivo, human
From the text: as §1
as §4, with “Participants were encouraged to perform as many repetitions as possible up to 10 repetitions for each set.” left out, “analysis. […]” for “analysis.”
as §3

[7] = Plasma HMB by gas chromatography-mass spectrometry after HMB-FA ingestion and resistance exercise; format: in vivo, human; settings: 1 g HMB-FA 30 min prior to exercise, p<0.01
From the text: as §1, with “Participants were not permitted to use any additional nutritional supplements or medications while enrolled in this study. Screening for nutritional and hormonal supplements was accomplished via a health history questionnaire completed during participant recruitment.” left out
The investigation utilized a placebo-controlled, double-blind, randomized design. […] Total training volume, calculated as repetitions×load, was recorded for further analysis. […]
Plasma HMB was analyzed by Metabolic Technologies Inc. by gas chromatography-mass spectrometry with previously outlined methods to confirm HMB appearance in the plasma (17). Myoglobin concentration was determined via a Myoglobin ELISA kit (Calbiotec, Cat no: MG017C, Spring Valley, Calif., USA) and prepared per manufacturer's instructions. Determination of serum immunoreactivity values was determined using a BioTek Eon spectrophotometer (BioTek, Winooski, Vt., USA). […]

[8] = AUC over PRE, IP, 30P, trapezoidal, p=0.02

Compound | Effect on the insulin response to the exercise protocol (insulin [1]) | Side effects [2] | Inhibition of muscle proteolysis (muscle proteolysis) | Resting insulin concentrations (insulin [3]) | Loss of HMB to urine [4] | Circulating testosterone levels (testosterone) | IGF-1 concentration vs PL ([5]; 30P) | IGF-1 AUC vs PL [5, 8] | IGF-1 concentration vs PL ([5]; IP) | IGF-1 concentration vs PL ([5]; PRE (baseline), supplement given 15 min before the PRE blood draw, p=0.012) | Absorption compared with CaHMB [6] | Tissue clearance compared with CaHMB [6] | Attenuating muscle damage and ameliorating inflammatory response compared with CaHMB (muscle damage) | Growth hormone concentration, elevation vs PL (growth hormone; 30P, p=0.100) | Growth hormone AUC vs PL (growth hormone; [8]) | Growth hormone concentration, elevation vs PL (growth hormone; IP, 1 g HMB-FA 30 min prior to exercise, p=0.021) | Plasma HMB concentrations ([7]; 30 min post-exercise (30P)) | Plasma HMB concentrations ([7]; immediately post-exercise (IP))
CC(C)(O)CC(=O)O [HMB, β-hydroxy-β-methylbutyrate] | unable to demonstrate any effect | no side effects | potent inhibitor of muscle proteolysis | significant increases | 20-50% | no differences | – | – | – | – | – | – | – | – | – | – | – | –
CC(C)(O)CC(=O)O [HMB-FA, β-hydroxy-β-methylbutyric acid] | – | – | – | – | – | – | No differences were observed between the groups | greater IGF-1 response | No differences were observed between the groups | elevated at baseline | absorbed quicker | greater tissue clearance | more efficacious | no difference between the groups | significantly higher GH response | significantly higher than PL | significantly elevated | significantly elevated
